Tested on: Lichen Ruber Planus
Assay: Case study: patient with Lichen ruber planus
Assay type: in vivo, human
Settings: Patient 4; several years, orally and by injection to local inflammation areas
Method: During the last five years reports have been received from patients taking the commercial dietary supplement capsules of the algal meal of Haematococcus pluvialis, Astaxin®, containing 4 mg astaxanthin. The daily doses recommended as an antioxidant is one capsule per day.
Patient 4. […] The symptoms of the disease were inter alia open wounds which had not healed […] had been treated with anti-inflammatory agents, such as cortisone, for several years, orally and also by injection directly to the local inflammation areas. […] They started to take 4 capsules of Astaxin per day, and after some weeks visible alleviation of the symptoms started to show up. […] During this period, the patient […] phased out the cortisone treatment. The dose of Astaxin was lowered to 2 capsules per day when they were asymtomatic. However, the symptoms returned in connection with a common cold.

C[C@]12CCC(=O)C=C1CC[C@@H]1[C@@H]2C(=O)C[C@@]2(C)[C@H]1CC[C@]2(O)C(=O)CO [cortisone]
result of previous anti-inflammatory treatment: has not led to any result
